Laboratory results: patent publication US20050169839A1, “Biomarker for efficacy of appetite suppressant drugs” (priority 2002, published 2005)
Where “and” joins values, the source holds several entries; their conditions need not be identical. Equal values may be shown once.

Tests used:
Format in all cases: in vivo, rat
plasma AGRP = assay: Plasma AGRP level (RIA) after 4-day dosing in male DIO rats; settings: for AGRP (pg/0.1 mL), mean / AGRP (pg/0.1 mL): plasma; for AGRP (pg/0.1 mL), mean: group mean
Text: A human AGRP RIA assay kit (Phoenix Pharmaceuticals, Inc., Belmont, Calif.), a human leptin RIA kit (Linco Research, Inc., St. Charles, Mo.), and a human specific insulin RIA kit (Linco Research, Inc., St. Charles, Mo.), were used to measure AGRP, leptin, and insulin, respectively in human plasma samples. A Phoenix AGRP RIA kit, which contains synthetic human AGRP (aa83-132) as a standard, was also used to measure AGRP level in rat plasma samples. […] Statistical comparison is based on one-way ANOVA, t or paired t test.
(§1) To determine if plasma AGRP level correlates with a subject's intake of MC4R agonists given as appetite suppressants, we measured plasma AGRP level in DIO rats after treatment with specific MC4 agonists. Male DIO rats were treated either with an MC4 agonist (15 mg/kg, po, b.i.d., for 4 days, n=7) or with vehicle (n=7). The specific MC4 agonist used for treatment was (aR)-N,N-bis(4-[(tert-butylamino)carbonyl]-4-cyclohexyl 1-{4-fluoro-N-[(2-methyl-2-azabicyclo[2.2.1]hept-6-yl)carbonyl]-D-phenylalanyl}piperidin-2-yl)-4-fluoro-N-[(2-methyl-2-azabicyclo[2.2.1]hept-6-yl)carbonyl]-D-phenylalaninamide hydrochloride (hereinafter Compound A).
(§2) After 4 days of treatment with Compound A or with vehicle, plasma samples were obtained from each rat. Plasma AGRP level was thereafter determined using an RIA Kit from Phoenix Pharmaceuticals, Inc. (Belmont, Calif.).
(§3) In a different experiment, groups of male DIO rats were treated either with a second MC4R agonist (20 mg/kg, po, b.i.d., for 4 days, n=6) or with vehicle (n=5). In this study, the specific MC4 agonist used was 4-[2-methylaminocarbonyl-4-flurorphenyl]-1-{[(3S, 4R)-1-tert-butyl-4-(2,4-difluorophenyl)-pyrrolidin-3-yl]carbonyl}piperidine (hereinafter Compound B). […] For each treatment group, plasma samples were collected after 4 days of treatment and AGRP level was measured using an RIA Kit from Phoenix Pharmaceuticals, Inc. (Belmont, Calif.).
as §2, with “Male DIO rats were treated either with S(+) fenflurarnine (3 mg/kg, po, b.i.d., for 4 days, n=7) or with vehicle (n=5). […] After” for “After”

[1] = Body weight change after 4-day dosing in male DIO rats; settings: for BW change (g), mean: group mean
Procedure: as §1, §2, §3
as §2, with “Male DIO rats were treated either with S(+) fenflurarnine (3 mg/kg, po, b.i.d., for 4 days, n=7) or with vehicle (n=5). […] After” for “After”

[2] = Body weight change after 4-day sibutramine dosing in male Sprague-Dawley rats; settings: sibutramine 3 mg/kg oral once daily for 4 days; mean±standard error; n=7; vehicle gained 23.6±4.16 g
Procedure: Male Sprague-Dawley rats (Charles River Laboratories, Wilmington, Mass.), which were 71 days of age at the beginning of the experiment, were treated with either vehicle alone (0.5% methyl cellulose; n=5 rats) or sibutramine (3 mg/kg of body weight in 0.5% methyl cellulose; n=7 rats). The treatment regime consisted of a single daily oral dose of the test compound every day for 4 days.
The body weight of each rat was measured before commencement of the experiment and at its conclusion. After 4 days of treatment with either test compound, plasma samples of each rat were collected for the measurement of AGRP level. […] The AGRP kit contains a synthetic human AGRP fragment (aa83-132) as the standard. […] For AGRP RIA, 100 μl rat plasma was used per assay. […] Statistical comparison is based on unpaired t test.

[3] = Compound B 20 mg/kg po b.i.d. 4 days, n=6
[4] = Compound B 20 mg/kg po b.i.d. 4 days, individual rats 1-6
[5] = S(+) fenfluramine 3 mg/kg po b.i.d. 4 days, n=7
[6] = S(+) fenfluramine 3 mg/kg po b.i.d. 4 days, individual rats 1-7
[7] = Compound A 15 mg/kg po b.i.d. 4 days, n=7
[8] = Compound A 15 mg/kg po b.i.d. 4 days, individual rats 1-7, hydrochloride, 15 mg/kg

For `CNC(=O)c1cc(F)ccc1C1CCN(C(=O)[C@@H]2CN(C(C)(C)C)C[C@H]2c2ccc(F)cc2F)CC1` [Compound B, 4-[2-methylaminocarbonyl-4-flurorphenyl]-1-{[(3S, 4R)-1-tert-butyl-4-(2,4-difluorophenyl)-pyrrolidin-3-yl]carbonyl}piperidine], the “AGRP (pg/0.1 mL), mean” value (plasma AGRP; [3]) was 48.4 pg/0.1 mL, the “AGRP (pg/0.1 mL)” value (plasma AGRP; [4]) was 45.6 pg/0.1 mL and 26 pg/0.1 mL and 39.8 pg/0.1 mL and 66.9 pg/0.1 mL and 47 pg/0.1 mL and 64.8 pg/0.1 mL and the “Plasma AGRP level” value (plasma AGRP; Compound B 20 mg/kg po b.i.d. 4 days, vehicle 45.8±14) was 48.4±6.3 pg/100 μl plasma. For the same compound, the “effect on body weight (in words)” value ([1]; Compound B 20 mg/kg po b.i.d. 4 days, DIO rats) was “not effective at reducing body weight”, the “BW change (g), mean” value [1, 3] was 17.5 g and the “BW change” value [1, 4] was 25 g (2×) and 5 g and 23 g and 15 g and 12 g. It also gave a body weight gained ([1]; Compound B 20 mg/kg po b.i.d. 4 days, mean±standard error, vehicle gained 14.2±1.9 g) of 17.5 ± 3.3 g.

With `CCN[C@@H](C)Cc1cccc(C(F)(F)F)c1` [S(+) fenfluramine, reference compound] the “AGRP (pg/0.1 mL), mean” value (plasma AGRP; [5]) was 48.3 pg/0.1 mL, the “AGRP (pg/0.1 mL)” value (plasma AGRP; [6]) was 39.3 pg/0.1 mL and 22.8 pg/0.1 mL and 57.8 pg/0.1 mL and 62.6 pg/0.1 mL and 94.4 pg/0.1 mL and 16.9 pg/0.1 mL and 44.6 pg/0.1 mL and the “average plasma AGRP level” value (plasma AGRP; S(+) fenfluramine 3 mg/kg po b.i.d. 4 days, vehicle 45.8±14) was 48.3±9.9 pg/100 μl plasma. For the same compound, the “BW change (g), mean” value [1, 5] was -16.3 g, the “BW change” value [1, 6] was −25 g and −13 g (2×) and −10 g (2×) and −15 g and −28 g and the body weight lost ([1]; S(+) fenfluramine 3 mg/kg po b.i.d. 4 days, mean±standard error, vehicle gained 14.2±1.9 g) was 16.3 ± 2.7 g.

For `CC(C)CC(N(C)C)C1(c2ccc(Cl)cc2)CCC1.Cl.O` (centres unmarked) [sibutramine, N-{1-[1-(4-chlorophenyl)cyclobutyl]-3-methylbutyl}-N,N-dimethylamine hydrochloride monohydrate], the body weight gained [2] was 10 ± 4.76 g.

In the case of “(aR)-N,N-bis(4-[(tert-butylamino)carbonyl]-4-cyclohexyl 1-{4-fluoro-N-[(2-methyl-2-azabicyclo[2.2.1]hept-6-yl)carbonyl]-D-phenylalanyl}piperidin-2-yl)-4-fluoro-N-[(2-methyl-2-azabicyclo[2.2.1]hept-6-yl)carbonyl]-D-phenylalaninamide hydrochloride [Compound A]”, the “Plasma AGRP level” value (plasma AGRP; Compound A 15 mg/kg po b.i.d. 4 days, mean±standard error) is reported as 36.2±2.5 pg/100 μl plasma, the “AGRP (pg/0.1 mL), mean” value (plasma AGRP; [7]) is reported as 36.2 pg/0.1 mL and the “AGRP (pg/0.1 mL)” value (plasma AGRP; [8]) is reported as 35.8 pg/0.1 mL and 42.2 pg/0.1 mL and 38.1 pg/0.1 mL and 46.2 pg/0.1 mL and 33 pg/0.1 mL and 26.5 pg/0.1 mL and 31.6 pg/0.1 mL. For the same compound, the “BW change (g), mean” value [1, 7] was -4.9 g, the “BW change” value [1, 8] was 2 g and 1 g and −2 g and −5 g and −7 g (2×) and −16 g and the body weight lost ([1]; Compound A 15 mg/kg po b.i.d. 4 days, mean±standard error, vehicle gained 3.7±1.4 g) was 4.9 ± 2.3 g.
